In patent publication US10077261B2, “Imidazolin-5-one derivative useful as FASN inhibitors for the treatment of cancer” (Janssen Pharmaceutica NV, priority 2012, dated 2018):

Legend:
A2780 ovarian cells [1] = assay: A2780 ovarian cell proliferation assay in lipid reduced medium, with palmitate (MTT); assay type: cell-based; settings: Homo sapiens, A2780, 96 h; read-out: pIC50 A2780 Ovarian Cell, With Palmitate (converted)
Procedure, shortened: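 Seeded cells were switched next day to lipid-reduced serum, exposed to compound and 25 μM palmitate complexed with fatty-acid-free BSA, and incubated 96 h. Proliferation was then determined by MTT absorbance at 544 nm, with a best-fit curve of signal against concentration.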

[2] = target: T1, hFASN enzyme (full length) (Homo sapiens, UniProt P49327); assay: Fatty Acid Synthase (FASN) inhibition scintillation proximity assay; assay type: biochemical; settings: for inhibition at 10 µM: read-out: Human FASN % inhibition @ 10 μM, 10 μM test compound; for IC50: read-out: Human FASN pIC50 (converted)
T1 construct: 10 μL hFASN enzyme (full length, 300 ng, purified in house); made in house
Procedure, shortened: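 Full-length in-house purified enzyme (300 ng) was tested in 100 mM KH2PO4 pH 7.5, 1 mM DTT with ³H-acetyl-CoA and malonyl-CoA as substrates; compounds ranged 0.01–30 μM. Reactions were stopped with streptavidin imaging beads, read by LEADseeker at 610 nm, and fitted to a 4-parameter logistic curve.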

A2780 ovarian cells [3] = assay: A2780 ovarian cell proliferation assay in lipid reduced medium, without palmitate (MTT); assay type: cell-based; settings: Homo sapiens, A2780, 96 h; read-out: pIC50 A2780 Ovarian Cell, Without Palmitate (converted)
[4] = target: Fatty Acid Synthase Keto-reductase Domain (FASN KR) (Homo sapiens, UniProt P49327); assay: Fatty Acid Synthase keto-reductase domain (FASN KR) inhibition, NADPH oxidation at 340 nm
Chain of Fatty Acid Synthase Keto-reductase Domain (FASN KR) (P49327 whole entry, the tested form may be a part): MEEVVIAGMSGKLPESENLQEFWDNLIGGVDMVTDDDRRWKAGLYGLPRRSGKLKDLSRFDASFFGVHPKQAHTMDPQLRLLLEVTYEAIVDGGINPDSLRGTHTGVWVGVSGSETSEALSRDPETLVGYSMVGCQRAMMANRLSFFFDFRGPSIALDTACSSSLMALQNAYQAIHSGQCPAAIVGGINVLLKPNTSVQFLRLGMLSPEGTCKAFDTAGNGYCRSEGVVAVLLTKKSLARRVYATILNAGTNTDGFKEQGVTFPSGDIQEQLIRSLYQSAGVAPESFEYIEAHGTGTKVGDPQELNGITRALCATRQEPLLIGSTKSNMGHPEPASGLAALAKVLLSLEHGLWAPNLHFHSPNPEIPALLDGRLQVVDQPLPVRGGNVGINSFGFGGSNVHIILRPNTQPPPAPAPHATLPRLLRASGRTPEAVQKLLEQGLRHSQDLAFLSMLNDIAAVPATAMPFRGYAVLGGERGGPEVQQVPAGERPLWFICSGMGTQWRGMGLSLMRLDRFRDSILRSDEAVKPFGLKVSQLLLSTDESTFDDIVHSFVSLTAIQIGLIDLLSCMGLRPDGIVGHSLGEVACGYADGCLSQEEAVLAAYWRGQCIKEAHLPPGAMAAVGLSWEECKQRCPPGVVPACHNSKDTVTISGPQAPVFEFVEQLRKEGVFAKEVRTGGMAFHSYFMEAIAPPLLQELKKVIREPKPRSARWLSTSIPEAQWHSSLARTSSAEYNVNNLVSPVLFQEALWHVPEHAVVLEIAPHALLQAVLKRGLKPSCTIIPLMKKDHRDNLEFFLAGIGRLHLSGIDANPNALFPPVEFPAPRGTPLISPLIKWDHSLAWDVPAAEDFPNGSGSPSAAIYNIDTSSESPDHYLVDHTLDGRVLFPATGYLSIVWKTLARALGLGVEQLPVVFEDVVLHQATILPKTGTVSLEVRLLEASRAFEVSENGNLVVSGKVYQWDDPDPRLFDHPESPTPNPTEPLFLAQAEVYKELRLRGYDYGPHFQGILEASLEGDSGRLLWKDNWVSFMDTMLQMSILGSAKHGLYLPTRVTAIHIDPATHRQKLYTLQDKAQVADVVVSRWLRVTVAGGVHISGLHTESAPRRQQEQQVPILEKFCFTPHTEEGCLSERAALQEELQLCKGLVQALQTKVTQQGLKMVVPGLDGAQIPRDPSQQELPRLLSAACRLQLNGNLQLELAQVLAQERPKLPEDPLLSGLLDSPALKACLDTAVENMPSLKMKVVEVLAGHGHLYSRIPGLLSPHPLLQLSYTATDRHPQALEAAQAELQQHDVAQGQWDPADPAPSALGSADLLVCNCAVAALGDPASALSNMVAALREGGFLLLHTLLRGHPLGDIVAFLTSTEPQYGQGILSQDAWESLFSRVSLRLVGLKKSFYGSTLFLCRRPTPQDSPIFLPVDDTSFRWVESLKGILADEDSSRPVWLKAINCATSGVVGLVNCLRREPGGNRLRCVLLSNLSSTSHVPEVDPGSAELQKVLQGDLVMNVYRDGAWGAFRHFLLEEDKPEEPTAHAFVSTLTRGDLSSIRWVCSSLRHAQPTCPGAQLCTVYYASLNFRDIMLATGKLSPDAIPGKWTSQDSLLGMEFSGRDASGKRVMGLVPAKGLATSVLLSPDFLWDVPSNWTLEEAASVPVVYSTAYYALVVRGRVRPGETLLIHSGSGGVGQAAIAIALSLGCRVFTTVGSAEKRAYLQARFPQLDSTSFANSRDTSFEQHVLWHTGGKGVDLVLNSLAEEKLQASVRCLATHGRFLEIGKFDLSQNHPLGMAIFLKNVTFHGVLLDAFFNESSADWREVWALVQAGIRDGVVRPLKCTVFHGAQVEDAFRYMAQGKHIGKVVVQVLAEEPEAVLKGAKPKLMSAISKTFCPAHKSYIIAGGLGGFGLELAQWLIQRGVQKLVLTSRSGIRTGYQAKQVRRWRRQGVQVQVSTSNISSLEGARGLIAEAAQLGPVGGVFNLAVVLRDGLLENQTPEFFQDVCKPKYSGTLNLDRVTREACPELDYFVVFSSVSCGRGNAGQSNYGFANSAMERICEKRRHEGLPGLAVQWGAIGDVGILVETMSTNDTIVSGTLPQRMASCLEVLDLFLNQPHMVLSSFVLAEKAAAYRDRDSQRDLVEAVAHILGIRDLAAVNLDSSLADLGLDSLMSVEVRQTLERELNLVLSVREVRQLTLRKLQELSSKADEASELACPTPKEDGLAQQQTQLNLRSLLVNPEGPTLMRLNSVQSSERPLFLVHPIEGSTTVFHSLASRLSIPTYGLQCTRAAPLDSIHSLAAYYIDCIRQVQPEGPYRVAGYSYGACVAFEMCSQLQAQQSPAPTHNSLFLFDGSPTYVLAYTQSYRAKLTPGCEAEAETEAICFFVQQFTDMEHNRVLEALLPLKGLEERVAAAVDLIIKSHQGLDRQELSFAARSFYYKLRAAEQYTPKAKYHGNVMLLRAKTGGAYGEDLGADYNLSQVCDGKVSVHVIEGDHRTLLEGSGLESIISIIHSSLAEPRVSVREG
Protocol: After 20 minutes incubation at room temperature the plate was measured again (T2).
The decrease in absorbance was calculated as (Absorbance before incubation T1)−(Absorbance following incubation T2).
A plot of Controlmin versus test compound concentration was fitted to a 4-parameter logistic curve using a non-linear least squares regression method.

T1 sequence (P49327 whole entry): as the sequence (P49327 whole entry, the tested form may be a part) above

Compound | IC50 (A2780 ovarian cells [1]) | inhibition at 10 µM [2] | IC50 [2] | IC50 (A2780 ovarian cells [3]) | IC50 [4]
Cc1cc(-c2ccc3sc(C)c(C)c3c2)ccc1C1=NC2(CC2)C(=O)N1C[C@@H]1CCN(C(=O)C2CC2)C1 [compound 283, (R)-6-((1-(cyclopropanecarbonyl)pyrrolidin-3-yl)methyl)-5-(4-(2,3-dimethylbenzo[b]thiophen-5-yl)-2-methylphenyl)-4,6-diazaspiro[2.4]hept-4-en-7-one] | > 10000 nM | 112% | 41.7 nM | ~1860 nM | 93.3 nM
O=C(C1CC1)N1CC[C@@H](CN2C(=O)C3(CCCC3)N=C2c2ccc(-c3ccc4cnccc4c3)cc2)C1 [compound 12, 3-{[(3R)-1-(Cyclopropylcarbonyl)pyrrolidin-3-yl]methyl}-2-(4-isoquinolin-6-ylphenyl)-1,3-diazaspiro[4.4]non-1-en-4-one] | 3800 nM | 99.4% | 25.7 nM | ~36.3 nM | 49 nM
Cc1cc2cc(-c3ccc(C4=NC5(CC5)C(=O)N4C[C@@H]4CCN(C(=O)C5CC5)C4)cc3C)ccc2o1 [compound 388, 6-{[(3R)-1-(Cyclopropylcarbonyl)pyrrolidin-3-yl]methyl}-5-[3-methyl-4-(2-methyl-1-benzofuran-5-yl)phenyl]-4,6-diazaspiro[2.4]hept-4-en-7-one] | > 10000 nM | 99% | 355 nM | ~2450 nM | 1100 nM
O=C(C1CC1)N1CCC(CN2C(=O)C3(CCCC3)N=C2c2ccc(-c3ccc4[nH]ccc4c3)cc2)CC1 [compound 76, 3-{[1-(Cyclopropylcarbonyl)piperidin-4-yl]methyl}-2-[4-(1H-indol-5-yl)phenyl]-1,3-diazaspiro[4.4]non-1-en-4-one] | > 10000 nM | 99.2% | 129 nM | 513 nM | 794 nM
Cc1cc(-c2ccc3[nH]ccc3c2)ccc1C1=NC2(CCCC2)C(=O)N1C[C@@H]1CCN(C(=O)C2CC2)C1 [compound 73, 3-{[(3R)-1-(Cyclopropylcarbonyl)pyrrolidin-3-yl]methyl}-2-[4-(1H-indol-5-yl)-2-methylphenyl]-1,3-diazaspiro[4.4]non-1-en-4-one] | > 10000 nM | 111% | 33.1 nM | ~28.8 nM | 64.6 nM
O=C(C1CC1)N1CC[C@@H](CN2C(=O)C3(CC3)N=C2c2ccc(-c3cccc(F)c3)cc2)C1 [compound 102, 6-{[(3R)-1-(Cyclopropylcarbonyl)pyrrolidin-3-yl]methyl}-5-(3′-fluorobiphenyl-4-yl)-4,6-diazaspiro[2.4]hept-4-en-7-one] | > 10000 nM | 107% | 209 nM | 2290 nM | 1070 nM
Cn1ncc2ccc(-c3ccc(C4=NC5(CCCC5)C(=O)N4C[C@@H]4CCN(C(=O)C5CC5)C4)cc3)cc21 [compound 34, 3-{[(3R)-1-(Cyclopropylcarbonyl)pyrrolidin-3-yl]methyl}-2-[4-(1-methyl-1H-indazol-6-yl)phenyl]-1,3-diazaspiro[4.4]non-1-en-4-one] | > 10000 nM | 102% | 117 nM | 776 nM | 355 nM
O=C(C1CC1)N1CCC(CN2C(=O)C3(CC3)N=C2c2ccc(-c3ccc4[nH]ccc4c3)cc2)CC1 [compound 10, 6-{[1-(Cyclopropylcarbonyl)piperidin-4-yl]methyl}-5-[4-(1H-indol-5-yl)phenyl]-4,6-diazaspiro[2.4]hept-4-en-7-one] | > 10000 nM | 89.7% | 204 nM | 871 nM | 501 nM
O=C(N1CC(CN2C(=O)C3(CCOC3)N=C2c2ccc(-c3ccc4occc4c3)cc2)C1)C(F)(F)F (centres unmarked) [compound 897, 2-(4-(benzofuran-5-yl)phenyl)-3-((1-(2,2,2-trifluoroacetyl)azetidin-3-yl)methyl)-7-oxa-1,3-diazaspiro[4.4]non-1-en-4-one] | > 10000 nM | 15% | > 10000 nM | > 10000 nM | –
CC(C)S(=O)(=O)c1cccc(-c2ccc(C3=NC4(CC4)C(=O)N3C[C@@H]3CCN(C(=O)C4CC4)C3)c(F)c2)c1 [compound 632, 6-{[(3R)-1-(Cyclopropylcarbonyl)pyrrolidin-3-yl]methyl}-5-{3-fluoro-3′-[(1-methylethyl)sulfonyl]biphenyl-4-yl}-4,6-diazaspiro[2.4]hept-4-en-7-one] | > 10000 nM | 70% | 2750 nM | ~2400 nM | –
Cn1cc(CCO)c2cc(-c3ccc(C4=NC5(CC5)C(=O)N4CC4CN(C(=O)C5CC5)C4)c(F)c3)ccc21 [compound 568, 6-{[1-(Cyclopropylcarbonyl)azetidin-3-yl]methyl}-5-{2-fluoro-4-[3-(2-hydroxyethyl)-1-methyl-1H-indol-5-yl]phenyl}-4,6-diazaspiro[2.4]hept-4-en-7-one] | 2400 nM | 89% | 129 nM | 46.8 nM | –
Cc1cc2ccc(-c3ccc(C4=NC5(CC5)C(=O)N4CC4CN(C(=O)C5CC5)C4)cc3)cc2nc1Cl [compound 555, 5-[4-(2-Chloro-3-methylquinolin-7-yl)phenyl]-6-{[1-(cyclopropylcarbonyl)azetidin-3-yl]methyl}-4,6-diazaspiro[2.4]hept-4-en-7-one] | > 10000 nM | 75% | 1860 nM | ~5130 nM | –
Cc1ccc2c(-c3ccc(C4=NC5(CC5)C(=O)N4CC4CN(C(=O)C5CC5)C4)c(F)c3)cccc2n1 [compound 575, 6-{[1-(Cyclopropylcarbonyl)azetidin-3-yl]methyl}-5-[2-fluoro-4-(2-methylquinolin-5-yl)phenyl]-4,6-diazaspiro[2.4]hept-4-en-7-one] | > 10000 nM | 52% | 8130 nM | ~7940 nM | –
Cn1cc(-c2ccc(-c3ccc(C4=NC5(CCOC5)C(=O)N4CC4CN(C(=O)C(F)(F)F)C4)cc3)cc2)cn1 (centres unmarked) [compound 899, 2-(4′-(1-methyl-1H-pyrazol-4-yl)-[1,1′-biphenyl]-4-yl)-3-((1-(2,2,2-trifluoroacetyl)azetidin-3-yl)methyl)-7-oxa-1,3-diazaspiro[4.4]non-1-en-4-one] | > 10000 nM | -10% | > 10000 nM | > 10000 nM | –
O=C(N1CCC(CN2C(=O)C3(CCOC3)N=C2c2ccc(-c3ccc4occc4c3)cc2)C1)C(F)(F)F (centres unmarked) [compound 938, 2-(4-(benzofuran-5-yl)phenyl)-3-((1-(2,2,2-trifluoroacetyl)pyrrolidin-3-yl)methyl)-7-oxa-1,3-diazaspiro[4.4]non-1-en-4-one] | > 10000 nM | 43% | > 10000 nM | 7940 nM | –
COc1ccc2cc(-c3ccc(C4=NC5(CC5)C(=O)N4CC4CN(C(=O)C5(O)CC5)C4)c(F)c3)ccc2c1 [compound 366, 5-(2-fluoro-4-(6-methoxynaphthalen-2-yl)phenyl)-6-((1-(1-hydroxycyclopropanecarbonyl)azetidin-3-yl)methyl)-4,6-diazaspiro[2.4]hept-4-en-7-one] | 562 nM | 89% | 61.7 nM | ~5.62 nM | –
Cc1ccc2c(-c3ccc(C4=NC5(CC5)C(=O)N4CC4CN(C(=O)C5(C)CC5)C4)c(C)c3)cccc2n1 [compound 603, 6-({1-[(1-Methylcyclopropyl)carbonyl]azetidin-3-yl}methyl)-5-[2-methyl-4-(2-methylquinolin-5-yl)phenyl]-4,6-diazaspiro[2.4]hept-4-en-7-one] | > 10000 nM | 87% | 1150 nM | ~3310 nM | –
Cc1cc(-c2cccc(SC3CC3)c2)ccc1C1=NC2(CC2)C(=O)N1CC1CN(C(=O)C2CC2)C1 [compound 650, 6-{[1-(Cyclopropylcarbonyl)azetidin-3-yl]methyl}-5-[3′-(cyclopropylsulfanyl)-3-methylbiphenyl-4-yl]-4,6-diazaspiro[2.4]hept-4-en-7-one] | > 10000 nM | 84% | 1350 nM | 4900 nM | –
O=C(C1CC1)N1CC(CN2C(=O)C3(CC3)N=C2c2ccc(-c3cc(C(F)(F)F)ccc3F)cc2F)C1 [compound 630, 6-{[1-(Cyclopropylcarbonyl)azetidin-3-yl]methyl}-5-[2′,3-difluoro-5′-(trifluoromethyl)biphenyl-4-yl]-4,6-diazaspiro[2.4]hept-4-en-7-one] | > 10000 nM | 67% | 3160 nM | 4070 nM | –
Cn1ncc2cc(-c3ccc(C4=NC5(CC5)C(=O)N4CC4CN(C(=O)C5CC5)C4)cc3Cl)ccc21 [compound 612, 5-[3-Chloro-4-(1-methyl-1H-indazol-5-yl)phenyl]-6-{[1-(cyclopropylcarbonyl)azetidin-3-yl]methyk}-4,6-diazaspiro[2.4]hept-4-en-7-one] | > 10000 nM | 74% | 2040 nM | 3800 nM | –
O=C(C1CC1)N1CC[C@@H](CN2C(=O)C3(CCNCC3)N=C2c2ccc(-c3ccc4occc4c3)cc2)C1 [compound 133, 2-[4-(1-Benzofuran-5-yl)phenyl]-3-{[(3R)-1-(cyclopropylcarbonyl)pyrrolidin-3-yl]methyl}-1,3,8-triazaspiro[4.5]dec-1-en-4-one] | > 10000 nM | 99.1% | 447 nM | ~3160 nM | –
